Positions count from the first letter of the chain named.
How the values were obtained:
[1] = molecular target: T1, TRPC6^P112Q (Homo sapiens, UniProt Q9Y210, P112Q); assay: Fura-2 single cell imaging of divalent cations in HEK 293 cells transfected with TRPC6^P112Q; assay type: cell-based
T1 construct: expressed in transfected cells; host or cells: HEK 293
T1 sequence (Q9Y210 1-931 P112Q): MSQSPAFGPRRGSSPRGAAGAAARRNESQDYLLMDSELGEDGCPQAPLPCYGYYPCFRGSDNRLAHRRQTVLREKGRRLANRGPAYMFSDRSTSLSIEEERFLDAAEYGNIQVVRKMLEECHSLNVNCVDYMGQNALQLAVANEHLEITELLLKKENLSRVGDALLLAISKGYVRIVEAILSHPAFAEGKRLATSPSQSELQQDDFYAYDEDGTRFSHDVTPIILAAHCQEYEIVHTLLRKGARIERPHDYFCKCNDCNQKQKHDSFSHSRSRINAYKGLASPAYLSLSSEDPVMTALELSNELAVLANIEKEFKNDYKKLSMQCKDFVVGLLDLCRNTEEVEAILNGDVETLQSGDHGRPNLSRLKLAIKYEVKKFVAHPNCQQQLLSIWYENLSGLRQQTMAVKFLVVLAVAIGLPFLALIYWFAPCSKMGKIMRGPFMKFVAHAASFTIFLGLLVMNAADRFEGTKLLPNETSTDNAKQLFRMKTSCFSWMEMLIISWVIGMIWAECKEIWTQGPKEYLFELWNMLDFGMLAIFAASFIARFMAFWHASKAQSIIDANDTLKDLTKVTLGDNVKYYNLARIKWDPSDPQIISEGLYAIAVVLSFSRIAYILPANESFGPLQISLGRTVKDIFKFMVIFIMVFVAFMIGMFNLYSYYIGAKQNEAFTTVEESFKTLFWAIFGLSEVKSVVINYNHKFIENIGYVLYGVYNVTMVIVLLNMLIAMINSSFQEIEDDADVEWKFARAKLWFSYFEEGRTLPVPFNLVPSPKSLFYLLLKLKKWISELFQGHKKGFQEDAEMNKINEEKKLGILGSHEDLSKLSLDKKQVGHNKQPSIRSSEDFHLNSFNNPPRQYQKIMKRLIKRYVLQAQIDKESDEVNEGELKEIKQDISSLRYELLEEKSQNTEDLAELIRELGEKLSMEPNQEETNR
Excerpt: (§1) To determine the effect of the P112Q mutation on TRPC6 function, we studied HEK 293 cells (human kidney cells) transfected with mutant (TRPC6^P112Q) or wild-type (WT) TRPC6 (14). The WT TRPC6 was cloned from a human kidney cDNA library. […] Diacylglycerol (DAG) is a potent activator of TRPC6 (15). We therefore measured the intracellular calcium concentration ([Ca^+2]i) using Fura fluorescence in HEK 293 cells expressing either the WT or TRPC6^P112Q after exposure to the DAG analogue OAG (1-oleoyl-2-acetyl-sn-glycerol). OAG perfusion increased late Ca^+2 transients in cells transfected with WT TRPC6 as expected (FIG. 3A and FIG. 7).
(§2) Angiotensin II acting through its AT1 receptor plays a critical role in the generation of proteinuria and progression of kidney injury in a number of kidney diseases including FSGS (16). AT1 receptors, coupled to heterotrimeric G nucleotide-binding proteins, activate phospholipase C-beta isoforms that hydrolyze phosphatidylinositol 4,5-bisphosphate (PIP2). This triggers production of inositol 1,4,5-trisphosphate (InsP3) and diacylglycerol (DAG) releases internal calcium stores and activates Ca^+2 entry, respectively (17). We examined whether the P112Q mutation would affect angiotensin II-dependent (i.e., receptor-operated) calcium signaling. HEK 293 cells were co-transfected with the AT1 angiotensin receptor (AT-YFP) and either WT TRPC6 or TRPC6^P112Q. [Ca^+2]i changes were measured after exposure to angiotensin II (FIG. 3B and FIG. 8); similar to the OAG experiments, the peak angiotensin II-stimulated [Ca^+2]i was higher in cells expressing the mutant protein compared with WT controls ([Ca^2+]i TRPC6^P112Q=640±66 nM vs. [Ca^2+]i WT TRPC6=357±46 nM; p<0.05). To establish that the P112Q mutation is not isolated to TRPC6 channels, we introduced the analogous mutation into the TRPC3 channel.
(§3) HEK 293 cells were plated on glass bottom plates at near confluence. After 24 hours, the cells were transfected with plasmids in the presence of lipofectamine 2000 (Invitrogen). Here 3 μg of TRPC6 plasmid (WT or mutant) and 1 μg of ATR-YFP plasmid were incubated for 4 hours in Optimem 2000 media (Gibco) and then changed to 10% FBS/DMEM media. For biotinylation experiments, 24 hours after transfection with TRPC6-V5 and TRPC6^P112Q-V5 constructs, cells were washed with ice cold PBS and incubated with sulfo-NHS-SS-Biotin (2 mg/ml) (Pierce) for 30-min at 4° C. After 3 washes with PBS with 10 mM glycine, cells were incubated with RIPA lysis buffer for 30-min at 4° C. Lysates were passed through a 20 G and then 25 G needle for 25 passes. Samples were then collected by centrifuging at 20K G for 15-min at 4° C. Supernatants were then incubated overnight with streptavidin agaraose beads (Pierce), washed 3 times and then heated to 37° C. […]

[2] = molecular target: T2, WT TRPC6 (Homo sapiens, UniProt Q9Y210); assay: Fura-2 single cell imaging of divalent cations in HEK 293 cells transfected with WT TRPC6; assay type: cell-based
T2 construct: expressed in transfected cells; host or cells: HEK 293
T2 sequence (Q9Y210 1-931): T1 sequence (Q9Y210 1-931 P112Q) with Q112P
Excerpt: as §1, §2, §3

CCCCCCCC/C=C\CCCCCCCC(=O)OC[C@H](CO)OC(C)=O [OAG, 1-oleoyl-2-acetyl-sn-glycerol]
OAG-stimulated barium transients, 4340/380 ratio ([1]; HEK293 cells transfected with TRPC6P112Q, Fura-2, barium as surrogate for calcium): 1.30±0.7 | Peak intracellular calcium concentration [Ca2+]i after OAG perfusion ([1]; HEK 293 cells transfected with TRPC6^P112Q, 100 μM OAG, Fura fluorescence): 181 ± 25 nM | Peak intracellular calcium concentration [Ca2+]i after OAG perfusion ([2]; HEK 293 cells transfected with WT TRPC6, 100 μM OAG, Fura fluorescence): 106 ± 15 nM | OAG-stimulated barium transients, ratio ([2]; HEK293 cells transfected with WT TRPC6, Fura-2, barium as surrogate for calcium): 0.49±0.18

angiotensin II: ligand acting through its AT1 receptor, used to stimulate receptor-operated calcium signaling (DRVYIHPF; Angiotensin-2; UniProt P01019 25-32, looked up)
Peak angiotensin II-stimulated [Ca2+]i ([1]; HEK 293 cells co-transfected with AT1 receptor (AT-YFP) and TRPC6^P112Q, angiotensin II 1 μM): 640 ± 66 nM | Duration of angiotensin II-induced barium signal ([1]; HEK 293 cells co-transfected with AT1 receptor and TRPC6^P112Q): 1054 ± 282 s | Peak angiotensin II-stimulated [Ca2+]i ([2]; HEK 293 cells co-transfected with AT1 receptor (AT-YFP) and WT TRPC6, angiotensin II 1 μM): 357 ± 46 nM | Duration of angiotensin II-induced barium signal ([2]; HEK 293 cells co-transfected with AT1 receptor and WT TRPC6): 271 ± 121 s

From patent publication US11035003B2, “TRPC6 involved in glomerulonephritis” (Duke University, priority 2005, dated 2021)
